This note sets out measurements from patent publication US9902716B2, “Fluorinated benzofuranyl-pyrimidine derivatives containing a sulfone group” (Bayer Pharma Aktiengesellschaft, priority 2014, dated 2018).

The assay has as its system MOLM-13 cells. The experiment in a line: Proliferation assay MOLM-13 (Method 3, Cell Titre-Glo). In kind it is cell-based. Particulars: Homo sapiens; MOLM-13, 72-hour exposure; read-out: Inhibition of MOLM-13 cell proliferation IC50. The procedure: Non-adherent MOLM-13 human acute myeloid leukemia cells (DSMZ ACC 554) were seeded at a density of 5,000 cells/well in a 96-well multititer plate in 100 μL of growth medium supplemented 10% fetal calf serum. After 24 hours, cell viability of one plate (zero-point plate) was determined with the Cell Titre-Glo Luminescent Cell Viability Assay (Promega), while 50 μL of test compound containing medium was added to the wells of the other plates (final concentrations in the range of 0.001-10 μM and DMSO controls; the final concentration of the solvent dimethyl sulfoxide was 0.5%). Cell viability was assessed after 72-hour exposure with the Cell Titre-Glo Luminescent Cell Viability Assay (Promega). IC50 values (inhibitory concentration at 50% of maximal effect) were determined by means of a 4 parameter fit on measurement data which were normalized to vehicle (DMSO) treated cells (=100%) and measurement readings taken immediately before compound exposure (=0%).

For the compound `CS(=O)(=O)Cc1cccc(Nc2ncc(F)c(-c3ccc(F)c4ccoc34)n2)c1` [Example 1, 5-Fluoro-4-(4-fluoro-1-benzofuran-7-yl)-N-{3-[(methylsulfonyl)methyl]-phenyl}pyrimidin-2-amine], the IC50 turned out to be 0.17 µM.
Consider `Cc1cc(CS(C)(=O)=O)cc(Nc2ncc(F)c(-c3ccc(F)c4ccoc34)n2)c1` [Example 4, 5-Fluoro-4-(4-fluoro-1-benzofuran-7-yl)-N-{3-methyl-5-[(methylsulfonyl)methyl]-phenyl}pyrimidin-2-amine], for which the IC50 was 0.046 µM.
